Results reported in ChEMBL document CHEMBL5370533 (Eur J Med Chem, 2023).

What was measured:
[1] = target: Receptor-type tyrosine-protein kinase FLT3 (Homo sapiens, UniProt P36888, D835H); test: Binding affinity to FLT3 D835H mutant (unknown origin)
[2] = AUC (0 to t) in Beagle dog at […], po; type: ADME, organism-based, Canis lupus familiaris; set-up: dose 1.5 mg/kg, route po; conditions: in vivo
[3] = Cytotoxicity against human PBMC cells assessed as inhibition of cell growth; type: toxicity, cell-based
[4] = target: CDK4/Cyclin D3 (Homo sapiens) (UniProt P11802+P30281); test: Inhibition of CDK4/Cyclin D3 (unknown origin); type: protein-complex assay; conditions: concentration not given here
[5] = AUC(0 to t) in rat at 10 mg/kg, po; type: ADME, organism-based; set-up: dose 10 mg/kg, route po; conditions: in vivo
SR = test: Antiproliferative activity against human SR cells assessed as inhibition of cell growth; type: functional
MV4-11 [6] = test: Antiproliferative activity against human MV4-11 cells harboring FLT3 ITD mutant assessed as inhibition of cell growth incubated for 72 hrs by CellTiter-Glo luminescent assay; type: functional, cell-based; conditions: MV4-11, 72 h
HL-60 = test: Antiproliferative activity against human HL-60 cells expressing low level wild type FLT3 assessed as inhibition of cell growth; type: functional, cell-based
[7] = target: CDK6/cyclin D1 (Homo sapiens) (UniProt P24385+Q00534); test: Inhibition of CDK6/Cyclin D1 (unknown origin); type: protein-complex assay; conditions: concentration not given here
[8] = Half life in rat at 10 mg/kg, po; type: ADME, organism-based; conditions: in vivo
MV4-11 [9] = test: animal or person; type: functional, Homo sapiens; conditions: Mus musculus, MV4-11, 336 h, route po, time 2 weeks
Description: Antitumor activity against human MV4-11 cells xenografted in nu/nu mouse assessed as inhibition of tumor growth at 50 mg/kg, po qd for 2 weeks by vernier caliper analysis

[10] = target: Receptor-type tyrosine-protein kinase FLT3 (Homo sapiens, UniProt P36888, F691L/ITD); test: Binding affinity to FLT3 ITD/F691L mutant (unknown origin)
[11] = target: Receptor-type tyrosine-protein kinase FLT3 (Homo sapiens, UniProt P36888, D835Y); test: Binding affinity to FLT3 D835Y mutant (unknown origin)
BaF3 [12] = test: Antiproliferative activity against mouse BaF3 cells harboring FLT3 D835V mutant assessed as inhibition of cell growth incubated for 72 hrs; type: functional, cell-based; conditions: BaF3, 72 h
[13] = Cmax in rat at 10 mg/kg, po; type: ADME, organism-based; set-up: dose 10 mg/kg, route po; conditions: in vivo
[14] = Tmax in rat at 10 mg/kg, po; type: ADME, organism-based; conditions: in vivo
BaF3 [15] = test: cells; type: functional, cell-based; conditions: Mus musculus, BaF3, 72 h
Description: Antiproliferative activity against mouse BaF3 cells harboring FLT3 ITD/N676D mutant assessed as inhibition of cell growth incubated for 72 hrs

[16] = target: Receptor-type tyrosine-protein kinase FLT3 (Homo sapiens, UniProt P36888, D835V/ITD); test: Binding affinity to FLT3 ITD/D835V mutant (unknown origin)
MV4-11 [17] = test: Antitumor activity against human MV4-11 cells xenografted in nu/nu mouse assessed as inhibition of tumor growth at 25 mg/kg, po qd for 2 weeks by vernier caliper analysis; type: functional; conditions: MV4-11, 336 h
LOX IMVI = test: Antiproliferative activity against human LOX IMVI cells assessed as inhibition of cell growth; type: functional
BaF3 [18] = test: cells; type: functional, cell-based; conditions: Mus musculus, BaF3, 72 h; remark: listed apart in the source
Description: Antiproliferative activity against mouse BaF3 cells harboring FLT3 ITD/F691L mutant assessed as inhibition of cell growth incubated for 72 hrs

[19] = Oral bioavailability in Beagle dog at […]; type: ADME, organism-based, Canis lupus familiaris; conditions: in vivo, dose 1.5 mg/kg
NCI-H460 = test: Antiproliferative activity against human NCI-H460 cells assessed as inhibition of cell growth; type: functional
KM12 = test: Antiproliferative activity against human KM12 cells assessed as inhibition of cell growth; type: functional

- Kd [1]: 0.0485 µM
- AUC(0-t) [2]: 0.762 µg·h/mL
- inhibition [4]: 79.2%
- AUC(0-t) [5]: 1.08 µg·h/mL
- IC50 (MV4-11 [6]): 0.015 µM
- IC50 (HL-60): 0.972 µM
- inhibition [7]: 68.8%
- half-life [8]: 3.5 h
- Kd [10]: 0.00161 µM
- Kd [11]: 0.00716 µM
- IC50 (BaF3 [12]): 0.043 µM
- Cmax [13]: 0.144 µg/mL
- Tmax [14]: 4 h
- IC50 (BaF3 [15]): 0.054 µM
- Kd [16]: 0.00058 µM
- IC50 (BaF3 [18]): 0.095 µM
- bioavailability [19]: 72.7%
- GI50 (NCI-H460): < 1 µM
SMILES: O=C(Nc1ccc(N2CCNCC2)cc1)c1n[nH]cc1Nc1cc(Oc2ccccc2)ncn1
- IC50 [3]: 0.831 µM
- GI50 (SR): < 1 µM
- inhibition in vivo at 50 mg/kg (MV4-11 [9]): 94%
- inhibition in vivo at 25 mg/kg (MV4-11 [17]): 94.2%
- GI50 (LOX IMVI): < 1 µM
- GI50 (KM12): < 1 µM
